In ChEMBL document CHEMBL4765476, “MCC950, a NLRP3 inhibitor, ameliorates lipopolysaccharide-induced lung inflammation in mice” (Bioorg Med Chem, 2021):
Activity calls are given as the source filed them. The calls are words filed in the database; no cut-off is given here.

How the values were obtained:
Mus musculus [1] = test: Antiinflammatory activity in ICR mouse assessed as reduction in LPS-induced caspase-1 expression in lungs at 0.5 mg/kg, ip administered 18 hrs before LPS-stimulation and measured after 24 hrs by Western blot analysis; format: functional, organism-based; conditions: time 42.0 hrs
Mus musculus [2] = test: Antiinflammatory activity in ICR mouse assessed as reduction in LPS-induced IL-1beta mRNA expression in lungs at 0.5 mg/kg, ip administered 18 hrs before LPS-stimulation and measured after 24 hrs by qRT-PCR analysis; format: functional, organism-based; conditions: time 42.0 hrs
Mus musculus [3] = test: Antiinflammatory activity in ICR mouse assessed as reduction in LPS-induced MMP-9 mRNA expression in lungs at 0.5 mg/kg, INH administered 18 hrs before LPS-stimulation and measured after 24 hrs by qRT-PCR analysis; format: functional, organism-based; conditions: time 42.0 hrs
Mus musculus [4] = test: Antiinflammatory activity in ICR mouse assessed as reduction in LPS-induced IL-1beta expression in lungs at 0.5 mg/kg, ip administered 18 hrs before LPS-stimulation and measured after 24 hrs by Western blot analysis; format: functional, organism-based; conditions: time 42.0 hrs
Mus musculus [5] = test: Antiinflammatory activity in ICR mouse assessed as reduction in LPS-induced TGF-beta1 mRNA expression in lungs at 0.5 mg/kg, ip administered 18 hrs before LPS-stimulation and measured after 24 hrs by qRT-PCR analysis; format: functional, organism-based; conditions: time 42.0 hrs
Mus musculus [6] = test: Antiinflammatory activity in ICR mouse assessed as reduction in LPS-induced neutrophil level in BALF at 0.5 mg/kg, ip administered 18 hrs before LPS-stimulation and measured after 24 hrs by FACS analysis relative to control; format: functional; conditions: time 42 hrs
Mus musculus [7] = test: Antiinflammatory activity in ICR mouse assessed as reduction in LPS-induced IL-1beta mRNA expression in lungs at 0.5 mg/kg, INH administered 18 hrs before LPS-stimulation and measured after 24 hrs by qRT-PCR analysis; format: functional, organism-based; conditions: time 42.0 hrs
Mus musculus [8] = test: Antiinflammatory activity in ICR mouse assessed as reduction in LPS-induced lymphocyte level in BALF at 0.5 mg/kg, ip administered 18 hrs before LPS-stimulation and measured after 24 hrs by FACS analysis relative to control; format: functional; conditions: time 42 hrs
Mus musculus [9] = test: Antiinflammatory activity in ICR mouse assessed as reduction in LPS-induced lymphocyte level in BALF at 0.5 mg/kg, INH administered 18 hrs before LPS-stimulation and measured after 24 hrs by FACS analysis relative to control; format: functional; conditions: time 42 hrs
Mus musculus [10] = test: Antiinflammatory activity in ICR mouse assessed as reduction in LPS-induced neutrophil infiltration in lungs at 0.5 mg/kg, INH administered 18 hrs before LPS-stimulation and measured after 24 hrs by H and E staining based imaging analysis relative to control; format: functional; conditions: time 42 hrs
Mus musculus [11] = test: Antiinflammatory activity in ICR mouse assessed as reduction in LPS-induced IL-1beta expression in lungs at 0.5 mg/kg, INH administered 18 hrs before LPS-stimulation and measured after 24 hrs by Western blot analysis; format: functional, organism-based; conditions: time 42.0 hrs
Mus musculus [12] = test: Antiinflammatory activity in ICR mouse assessed as reduction in LPS-induced IL-18 expression in serum at 0.5 mg/kg, INH administered 18 hrs before LPS-stimulation and measured after 24 hrs by ELISA; format: functional, organism-based; conditions: time 42.0 hrs
Mus musculus [13] = test: Antiinflammatory activity in ICR mouse assessed as reduction in LPS-induced macrophage level in BALF at 0.5 mg/kg, ip administered 18 hrs before LPS-stimulation and measured after 24 hrs by FACS analysis relative to control; format: functional; conditions: time 42 hrs
Mus musculus [14] = test: Antiinflammatory activity in ICR mouse assessed as reduction in LPS-induced IL-18 expression in serum at 0.5 mg/kg, ip administered 18 hrs before LPS-stimulation and measured after 24 hrs by ELISA; format: functional, organism-based
Mus musculus [15] = test: Antiinflammatory activity in ICR mouse assessed as reduction in LPS-induced IL-1beta expression in serum at 0.5 mg/kg, INH administered 18 hrs before LPS-stimulation and measured after 24 hrs by ELISA; format: functional, organism-based; conditions: time 42.0 hrs
Mus musculus [16] = test: Antiinflammatory activity in ICR mouse assessed as reduction in LPS-induced neutrophil infiltration in lungs at 0.5 mg/kg, ip administered 18 hrs before LPS-stimulation and measured after 24 hrs by H and E staining based imaging analysis relative to control; format: functional; conditions: time 42 hrs
Mus musculus [17] = test: Antiinflammatory activity in ICR mouse assessed as reduction in LPS-induced IL-1beta expression in serum at 0.5 mg/kg, ip administered 18 hrs before LPS-stimulation and measured after 24 hrs by ELISA; format: functional, organism-based; conditions: time 42.0 hrs
Mus musculus [18] = test: Antiinflammatory activity in ICR mouse assessed as reduction in LPS-induced IL-8 mRNA expression in lungs at 0.5 mg/kg, INH administered 18 hrs before LPS-stimulation and measured after 24 hrs by qRT-PCR analysis; format: functional, organism-based; conditions: time 42.0 hrs
Mus musculus [19] = test: Antiinflammatory activity in ICR mouse assessed as reduction in LPS-induced neutrophil level in BALF at 0.5 mg/kg, INH administered 18 hrs before LPS-stimulation and measured after 24 hrs by FACS analysis relative to control; format: functional; conditions: time 42 hrs
Mus musculus [20] = test: Antiinflammatory activity in ICR mouse assessed as reduction in LPS-induced TGF-beta1 mRNA expression in lungs at 0.5 mg/kg, INH administered 18 hrs before LPS-stimulation and measured after 24 hrs by qRT-PCR analysis; format: functional, organism-based; conditions: time 42.0 hrs
Mus musculus [21] = test: Antiinflammatory activity in ICR mouse assessed as reduction in LPS-induced macrophage level in BALF at 0.5 mg/kg, INH administered 18 hrs before LPS-stimulation and measured after 24 hrs by FACS analysis relative to control; format: functional; conditions: time 42 hrs
Mus musculus [22] = test: Antiinflammatory activity in ICR mouse assessed as reduction in LPS-induced MMP-9 mRNA expression in lungs at 0.5 mg/kg, ip administered 18 hrs before LPS-stimulation and measured after 24 hrs by qRT-PCR analysis; format: functional, organism-based; conditions: time 42.0 hrs
Mus musculus [23] = test: Antiinflammatory activity in ICR mouse assessed as reduction in LPS-induced IL-8 mRNA expression in lungs at 0.5 mg/kg, ip administered 18 hrs before LPS-stimulation and measured after 24 hrs by qRT-PCR analysis; format: functional, organism-based; conditions: time 42.0 hrs
Mus musculus [24] = test: Antiinflammatory activity in ICR mouse assessed as reduction in LPS-induced caspase-1 expression in lungs at 0.5 mg/kg, INH administered 18 hrs before LPS-stimulation and measured after 24 hrs by Western blot analysis; format: functional, organism-based; conditions: time 42.0 hrs

C[C@@H]1C[C@H]2[C@@H]3CCC4=CC(=O)C=C[C@]4(C)[C@@]3(F)[C@@H](O)C[C@]2(C)[C@@]1(O)C(=O)CO [DEXAMETHASONE] was tested, and the inhibition (Mus musculus [1]) was “Active”, the inhibition (Mus musculus [2]) was “Active” and the inhibition (Mus musculus [3]) was “Active”. The inhibition (Mus musculus [4]) was “Active”, the inhibition (Mus musculus [5]) was “Active” and the inhibition in vivo at 0.5 mg/kg (Mus musculus [6]) was 66.9%. For the same molecule, the inhibition (Mus musculus [7]) was “Active”, the inhibition in vivo at 0.5 mg/kg (Mus musculus [8]) was 46.1% and the inhibition in vivo at 0.5 mg/kg (Mus musculus [9]) was 30.6%. The inhibition in vivo at 0.5 mg/kg (Mus musculus [10]) was 55.9%, the inhibition (Mus musculus [11]) was “Active” and the inhibition (Mus musculus [12]) was “Active”. The inhibition in vivo at 0.5 mg/kg (Mus musculus [13]) was 75.1%, the inhibition (Mus musculus [14]) was “Active” and the inhibition (Mus musculus [15]) was “Active”. The inhibition in vivo at 0.5 mg/kg (Mus musculus [16]) was 58.7%, the inhibition (Mus musculus [17]) was “Active” and the inhibition (Mus musculus [18]) was “Active”. The inhibition in vivo at 0.5 mg/kg (Mus musculus [19]) was 72.9%, the inhibition (Mus musculus [20]) was “Active” and the inhibition in vivo at 0.5 mg/kg (Mus musculus [21]) was 40.9%. For the same molecule, the inhibition (Mus musculus [22]) was “Active”, the inhibition (Mus musculus [23]) was “Active” and the inhibition (Mus musculus [24]) was “Active”.
